Entries after “also recorded” stand apart in the source; their conditions may differ. Values belong to the compound of their own block, whether it stands above or below them.
Experiments:
[1] = target: CXCR4 on human endothelial progenitor cells (EPCs) (human) (UniProt P61073); assay: cell-based or functional assay
[2] = tested on: CXCR4+ EPCs / HUVEC monolayers; assay: Adhesion assay of DiI-labeled CXCR4+ EPCs to HUVEC monolayers; format: cell-based, human; settings: monolayers pre-coated for 20 minutes with recombinant SDF-1
Experimental: Confluent HUVEC monolayers were subjected to normoxic or hypoxic culture for 6 hours. Human SDF-1αβ/PBSF (100 ng/ml, Sigma) was added where indicated. DiI-labeled EPCs (5×10^4) in EBM/0.5% FBS were added to each preconditioned monolayer and pre-adhesion fluorescence was measured using a Cytofluor 2320 (Millipore). After 3 hours, nonadherent cells were washed away, and post-adhesion fluorescence was measured. The percentage of adherent
cells was calculated using the following formula: [formula] Results are representative of three independent experiments.
HIF-1α siRNA (Berra et al, “HIF Prolyl-hydroxylase 2 is the Key Oxygen Sensor Setting Low Steady-state Levels of HIF-1α in Normoxia,” Embo. J. 22:4082-4090 (2003), which is hereby incorporated by reference in its entirety) (synthesized by Qiagen) was transfected into HUVECs using RNAiFect (Qiagen) in parallel with Lamin A/C and FITC-labeled control siRNAs according to the manufacturer=3 s protocol. Cells were treated with normoxic or hypoxic conditions starting 24 hours following transfection. Gene expression and adhesion assays were performed at 48 hours.

EPCs = assay: Migration assay (modified transwell) of EPCs; format: cell-based, human; settings: 6 hour migration period
Experimental: Migration was studied using a modified transwell assay. EPCs (5×10^4) were seeded onto ChemoTx filters (5.7 mm, 8 μm pore, Neuro Probe) in EBM/0.5% FBS. […] Following the 6 hour migration period, nonmigrating cells were completely wiped from the top surface of the membrane. Migrating cells adherent to the undersurface of the filters were quantified using DAPI staining (Vector) with Kodak 1D software. Results are indicative of four independent experiments.

SDF1 promoter = SDF1 promoter luciferase reporter assay (pGL3b.SDF1.full) in HMEC-1; format: cell-based, human; settings: 0.1 mM cobalt chloride, 12 hours, HMEC-1 transfected with pGL3b.SDF1.full
Text: The 1.4 kb 5′ SDF1 promoter region was cloned into the luciferase reporter vector pGL3-Basic (Promega) generating pGL.SDF1.full. 5′ deletion constructs were generated from pGL.SDF1.full using unique internal restriction sites SmaI/SacI, and XhoI. HBS-only contructs (HBS1, HBS2, or both) were generated by PCR and cloned into pGL3-Promoter (Promega). HBS1 was mutated using the mega-primer method (primers listed below) (Kammann et al., “Rapid Insertional Mutagenesis of DNA by Polymerase Chain Reaction (PCR),” Nucleic Acids Res. 17:5404 (1989), which is hereby incorporated by reference in its entirety). All constructs were sequenced to confirm their identity. Reporter plasmids were co-transfected with a constitutively expressed Renilla luciferase construct (pHRL-TK, Promega) into HMECs using the Genejammer reagent (Stratagene). 48 hours after transfection, cells were incubated in hypoxia or normoxia with and without 0.1 mM cobalt chloride (CoCl2) for 12 hours. Luciferase activity was determined using the Dual Luciferase System (Promega) and data were normalized to Renilla luciferase expression from at least four independent experiments. Co-transfection experiments using plasmids for oxygen […] HIF-1α (HIF-1.ΔODD) and the HIF-1α dominant negative (HIF-1.DN) were compared to control transfections using the appropriate empty vector (pcDNA3.1 and pCEP4, respectively) for each construct. […]

Sequence of UniProt P61073 (P61073 whole entry): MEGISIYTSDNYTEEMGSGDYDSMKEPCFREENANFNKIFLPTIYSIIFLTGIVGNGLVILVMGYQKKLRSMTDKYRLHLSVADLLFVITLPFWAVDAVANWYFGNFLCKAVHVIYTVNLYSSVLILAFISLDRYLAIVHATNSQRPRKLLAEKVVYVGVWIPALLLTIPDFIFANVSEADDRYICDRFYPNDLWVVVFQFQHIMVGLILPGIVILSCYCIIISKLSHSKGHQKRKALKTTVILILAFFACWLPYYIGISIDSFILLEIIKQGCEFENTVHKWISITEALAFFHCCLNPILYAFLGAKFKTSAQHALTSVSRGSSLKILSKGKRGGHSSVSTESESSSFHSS

EPC migration toward hypoxia-conditioned media after preincubating EPCs with neutralizing CXCR4 antibodies (HM+ab) [1]: 175 cells/hpf
Compound: neutralizing CXCR4 antibody (Clone 44716, R&D Systems)

Compound: recombinant SDF-1: Recombinant human SDF-1αβ/PBSF (Sigma), chemokine
adhesion of CXCR4+ EPCs to normoxic HUVEC monolayers [2]: Increased adhesion; also recorded: adhered more EPCs
EPC migration, effect in words (EPCs): EPC migration increased

Compound: [Cl][Co][Cl] [cobalt chloride]
SDF1-specific luciferase expression (SDF1 promoter): four-fold

Source: patent US20060154860A1, “Manipulating stem-progenitor cell trafficking to injured tissue and/or tumors by altering HIF-1 and/or SDF-1 activity” (priority 2004, published 2006)
